These results are taken from patent publication US9783521B2, “PDE10 inhibitors and related compositions and methods” (Omeros Corporation, priority 2008, dated 2017).

pIC50: −log10 of the molar value.

In general, pIC50 refers to the IC50 on a negative log10 scale, so that one unit is a factor of ten.

The assay deals with T1, recombinant human PDE 10A1 (Homo sapiens, UniProt Q9Y233).
T1 construct: made in house; host or cells: Sf9 insect cells, baculoviral system
In words: PDE10 biochemical assay (two-step Thompson and Appleman method or SPA). The conditions noted are these: PDE10 inhibition; read-out: IC50. The procedure:
After the appropriate incubation time, the reaction is terminated by heating. The mixture is then subjected to treatment with snake venom phosphatase. […] IC50 values can be calculated by performing the experiment at several concentrations using standard graphical means. A detailed description of the actual technique used for IC50 assays as set forth in following Examples.
The phosphodiesterase (PDE) assay was performed using recombinant human PDE 1A3, 2A3, 3 catalytic region, 4 catalytic region, 5 catalytic region, 7A, 8A, 9A2, 10A1 and 11A1 enzymes expressed in a baculoviral system using Sf9 cells. PDE activity was measured using a modification of the two-step method of Thompson and Appleman described above which was adapted for 96 well plate format. […] Reactions were initiated with enzyme and incubated with (^3H)-substrate and substance for 20 minutes at 30° C. The reaction was terminated by denaturing the enzyme (heating the reaction to 70° C. for 2 minutes). The reaction was then cooled at 4° C. for 10 minutes before the addition of snake venom (Crotalus atrox, 0.2 mg/ml) for 10 minutes at 30° C., thus allowing non-specific hydrolysis of the tritiated substrate. Separation of the remaining unhydrolysed cyclic nucleotide was achieved by a batch binding of the mixture to activated Dowex (200 μl) anion exchange resin. The anion exchange resin bound the charged nucleotides, leaving only hydrolysed (^3H) substrate in the soluble fraction. The soluble fraction (50 μl) was then added to microscint-20 (200 μl) and counted on a Top Count Plate reader. Radioactivity units were plotted against inhibitor concentration and IC50 values obtained using Graph Pad Prism software.
Alternatively, phosphodiesterase activity was measured by scintillation proximity assay (SPA) with [^3H]-cGMP as substrate. Purified PDE10 was diluted and stored in 25 mM Tris-Cl (pH 8.0)/100 mM NaCl/0.05% Tween 20/50% glycerol/3 mM DTT. Assays contained (final concentrations): 50 mM Tris-Cl (pH 7.5)/8.3 mM MgCl2/1.7 mM EGTA/0.5 mg/ml BSA/5% DMSO and 2 ng PDE10 in a final volume of 0.1 mL. Inhibition was evaluated at 8 concentrations in duplicate. Reactions were initiated by addition of enzyme and were terminated after 20 minutes at 30° C. by the addition of 50 μl of SPA beads containing Zn^++. The mixture was shaken, allowed to settle for 3 hours, and counted in a Wallac plate counter. Results (net cpm) were fitted to a four parameter logistic model using Excel Solver®.

T1 sequence (Q9Y233 1-779 isoform Q9Y233-1): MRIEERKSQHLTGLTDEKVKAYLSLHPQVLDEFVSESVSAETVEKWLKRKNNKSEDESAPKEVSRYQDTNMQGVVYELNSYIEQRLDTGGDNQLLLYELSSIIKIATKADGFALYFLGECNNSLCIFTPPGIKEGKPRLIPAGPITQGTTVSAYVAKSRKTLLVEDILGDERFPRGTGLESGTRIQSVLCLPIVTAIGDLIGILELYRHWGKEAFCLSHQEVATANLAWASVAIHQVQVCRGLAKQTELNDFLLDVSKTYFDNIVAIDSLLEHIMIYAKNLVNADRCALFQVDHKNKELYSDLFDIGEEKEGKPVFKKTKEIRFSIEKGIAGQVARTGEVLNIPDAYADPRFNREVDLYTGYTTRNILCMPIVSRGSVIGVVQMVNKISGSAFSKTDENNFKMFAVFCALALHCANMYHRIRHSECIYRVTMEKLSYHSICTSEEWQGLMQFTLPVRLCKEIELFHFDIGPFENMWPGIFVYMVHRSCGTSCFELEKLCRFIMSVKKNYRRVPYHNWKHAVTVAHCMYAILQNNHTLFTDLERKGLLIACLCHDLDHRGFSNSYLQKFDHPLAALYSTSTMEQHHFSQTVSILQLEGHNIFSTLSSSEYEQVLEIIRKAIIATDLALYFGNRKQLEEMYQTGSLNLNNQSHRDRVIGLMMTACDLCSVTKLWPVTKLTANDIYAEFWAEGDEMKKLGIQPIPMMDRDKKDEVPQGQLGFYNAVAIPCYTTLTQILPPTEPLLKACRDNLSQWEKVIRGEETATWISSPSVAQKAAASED

For the molecule `CCOC(C(=O)N/N=C/c1cc(OC)c(Cl)c(OC)c1)c1cccc2ncccc12` (centres unmarked) [Compound 12-119], the pIC50 was at least 6.00.

`CCOC(C(=O)N/N=C/c1cc(OC)cc(OC)c1)c1cccc2ncccc12` (centres unmarked) [Compound 12-120]: the negative-log IC50 (pIC50) was at least 6.00.

As to `COc1cc(/C=N/NC(=O)C(OC)c2cccc(N(C)C)c2)cc(Br)c1OC` (centres unmarked) [Compound 12-122], the negative-log IC50 (pIC50) is at least 6.00.

Consider `COc1cc(/C=N/NC(=O)C(OCCN(C)C)c2ccc3ccccc3c2)cc(OC)c1Br` (centres unmarked) [Compound 12-123], for which the pIC50 is at least 6.00.

`COc1cc(/C=N/NC(=O)C(OC)c2cccc(N(C)C)c2)cc(OC)c1O` (centres unmarked) [Compound 12-124]: the negative logarithm of the IC50 (pIC50) was at least 6.00.

Consider `COc1cc(/C=N/NC(=O)C(OC)c2ccc(N3CCCC3)cc2)cc(OC)c1Cl` (centres unmarked) [Compound 12-126], for which the pIC50 was at least 6.00.

Consider `CCOC(C(=O)N/N=C/c1cc(OC)c(C)c(OC)c1)c1cccc2c1OCCO2` (centres unmarked) [Compound 12-128], for which the pIC50 was at least 6.00.

Turning to `CCOC(C(=O)N/N=C/c1cc(Br)c(OC)c(OC)c1)c1cccc2c1OCCO2` (centres unmarked) [Compound 12-129], the pIC50 is at least 6.00.

As for `CCOC(C(=O)N/N=C/c1cc(OC)c(OC)c(OC)c1)c1cccc2c1OCCO2` (centres unmarked) [Compound 12-130], the pIC50 is at least 6.00.

On to `CCOC(C(=O)N/N=C/c1cc(OC)c(Br)c(OC)c1)c1cccc2c1OCCO2` (centres unmarked) [Compound 12-131], for which the pIC50 was at least 6.00.

`CCOC(C(=O)N/N=C/c1cc(Br)c(OC)c(OC)c1)c1ccc2c(c1)OCCO2` (centres unmarked) [Compound 12-135]: the pIC50 is at least 6.00.

Regarding `COc1cc(/C=N/NC(=O)Cc2ccc(N3CCOCC3)cc2)cc(OC)c1Br` [Compound 12-139], the pIC50 is at least 6.00.

Regarding `COc1cc(/C(C)=N/NC(=O)C(OC)c2ccc(-n3cccn3)cc2)cc(OC)c1OC` (centres unmarked) [Compound 12-144], the pIC50 was at least 6.00.

As to `COc1ccc(/C=N/NC(=O)C(OC)c2ccc(-n3cccn3)cc2)cc1OC` (centres unmarked) [Compound 12-155], the pIC50 is at least 6.00.
